Assay results reported in patent US20240390388A1, “TRICYCLIC COMPOUNDS AND USE THEREOF” (MEDSHINE DISCOVERY INC., priority 2021, published 2024).
pIC50: −log10 of the molar value. Like-named read-outs stand apart in the source and are kept apart here.

How the values were obtained:
[1] = target: T1, PI3K γ (Homo sapiens, UniProt P48736); assay: Enzyme activity test in vitro (ADP-Glo lipid kinase), PI3K γ; format: biochemical; settings: ATP 25 μM, 120 min
T1 construct: purchased Millipore 14-558-K
T1 sequence (P48736 whole entry): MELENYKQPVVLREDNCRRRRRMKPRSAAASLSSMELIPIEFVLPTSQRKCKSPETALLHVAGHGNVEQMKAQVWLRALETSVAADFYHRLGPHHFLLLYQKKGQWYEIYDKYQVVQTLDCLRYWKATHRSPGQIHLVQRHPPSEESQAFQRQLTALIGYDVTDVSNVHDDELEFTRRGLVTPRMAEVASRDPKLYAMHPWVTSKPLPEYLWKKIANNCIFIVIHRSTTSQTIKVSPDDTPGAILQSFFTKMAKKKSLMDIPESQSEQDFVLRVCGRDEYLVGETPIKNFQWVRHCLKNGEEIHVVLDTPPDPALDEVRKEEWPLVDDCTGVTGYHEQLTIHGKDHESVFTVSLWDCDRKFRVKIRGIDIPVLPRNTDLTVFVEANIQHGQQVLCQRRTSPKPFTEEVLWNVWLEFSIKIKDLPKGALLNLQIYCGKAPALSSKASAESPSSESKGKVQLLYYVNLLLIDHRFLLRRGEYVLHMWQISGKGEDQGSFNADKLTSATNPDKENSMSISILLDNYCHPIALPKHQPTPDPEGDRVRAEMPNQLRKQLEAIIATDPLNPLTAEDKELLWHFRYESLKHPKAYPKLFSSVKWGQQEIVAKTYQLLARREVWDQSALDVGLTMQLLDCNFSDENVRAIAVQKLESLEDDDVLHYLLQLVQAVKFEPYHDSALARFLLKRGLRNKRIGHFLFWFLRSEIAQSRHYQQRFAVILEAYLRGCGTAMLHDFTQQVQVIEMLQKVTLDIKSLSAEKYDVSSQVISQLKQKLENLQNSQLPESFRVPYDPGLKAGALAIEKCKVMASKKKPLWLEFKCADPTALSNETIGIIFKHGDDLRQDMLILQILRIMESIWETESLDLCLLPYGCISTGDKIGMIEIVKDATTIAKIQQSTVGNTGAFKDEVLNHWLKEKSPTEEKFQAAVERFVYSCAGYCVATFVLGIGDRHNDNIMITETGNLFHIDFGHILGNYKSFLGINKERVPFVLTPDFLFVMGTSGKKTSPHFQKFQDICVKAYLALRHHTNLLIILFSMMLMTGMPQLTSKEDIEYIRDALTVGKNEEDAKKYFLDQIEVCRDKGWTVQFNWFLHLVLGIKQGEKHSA
Description: (§1) The lipid kinase reaction was carried out under the conditions of the appropriate substrate and ATP. Then the kinase activity was tested with the ADP-Glo™ kit in two steps. Step 1: The kinase reaction was terminated, in which residual ATP was completely removed, and only ADP was remained; Step 2: Kinase test reagent was added to convert ADP into ATP, accompanied by luciferin/luciferase reaction. Finally, the […] numerical output value was converted into kinase activity.
(§2) b) Kit: ADP-Glo™ Lipid Kinase and PIP2: 3PS Kit (Promega #V1792)
(§3) b) Final test system conditions: 1× reaction system: 50 mM HEPES, 50 mM NaCl, 3 mM MgCl2, 0.01% BSA (freshly prepared on the day of the experiment), 1% DMSO (v/v) +/−compound
(§4) c) Reaction system: 3 μL mixture of enzyme and substrate (1:1)+2 μL ATP/MgCl2 mixture +5 μL ADP-Glo reagent+10 μL assay reagent.
(§5) a) Compound dilution: 50 nL of 100× compound/DMSO was transferred to the test well plate with Echo
(§6) For PI3K β/PI3K δ/PI3K γ, the compounds were diluted three-fold from the highest concentration of 1.11 mM for a total of 10 concentrations.
(§7) (1) The compound to be tested was prepared. 50 nL of […] compound solution or DMSO was added to the corresponding well plate. […]
(§8) (16) Fluorescence values were measured on an Envision instrument.

[2] = target: T2, PI3K δ (Homo sapiens, UniProt O00329); assay: Enzyme activity test in vitro (ADP-Glo lipid kinase), PI3K δ; format: biochemical; settings: ATP 40 μM, 120 min
T2 construct: purchased Millipore 14-604-K
T2 sequence (O00329 whole entry): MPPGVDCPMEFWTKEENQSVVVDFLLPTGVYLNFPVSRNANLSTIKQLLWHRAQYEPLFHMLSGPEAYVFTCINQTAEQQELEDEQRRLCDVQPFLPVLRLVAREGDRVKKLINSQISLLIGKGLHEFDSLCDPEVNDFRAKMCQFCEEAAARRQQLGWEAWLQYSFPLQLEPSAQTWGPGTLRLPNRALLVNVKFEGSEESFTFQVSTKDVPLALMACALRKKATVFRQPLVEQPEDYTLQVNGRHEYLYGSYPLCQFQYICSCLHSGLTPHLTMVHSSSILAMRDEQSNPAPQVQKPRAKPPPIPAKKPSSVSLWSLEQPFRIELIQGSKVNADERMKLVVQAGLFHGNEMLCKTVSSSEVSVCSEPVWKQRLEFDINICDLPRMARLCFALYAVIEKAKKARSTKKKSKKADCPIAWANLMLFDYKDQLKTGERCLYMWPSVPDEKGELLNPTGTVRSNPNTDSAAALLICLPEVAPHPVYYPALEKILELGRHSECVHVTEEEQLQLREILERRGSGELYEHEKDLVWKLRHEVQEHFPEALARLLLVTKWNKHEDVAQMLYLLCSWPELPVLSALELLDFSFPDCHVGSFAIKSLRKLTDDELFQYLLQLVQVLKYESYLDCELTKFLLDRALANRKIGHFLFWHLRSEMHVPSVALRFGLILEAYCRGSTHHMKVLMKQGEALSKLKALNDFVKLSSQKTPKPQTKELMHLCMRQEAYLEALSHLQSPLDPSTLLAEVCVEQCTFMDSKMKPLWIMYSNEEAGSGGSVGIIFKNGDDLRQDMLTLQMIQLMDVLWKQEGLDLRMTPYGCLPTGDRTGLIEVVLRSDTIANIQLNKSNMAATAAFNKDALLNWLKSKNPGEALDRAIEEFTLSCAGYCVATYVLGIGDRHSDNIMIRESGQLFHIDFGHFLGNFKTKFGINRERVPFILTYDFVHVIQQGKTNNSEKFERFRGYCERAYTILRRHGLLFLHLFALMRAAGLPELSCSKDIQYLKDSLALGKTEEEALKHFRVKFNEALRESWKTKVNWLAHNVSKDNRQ
T2 sequence (P27986 whole entry partner): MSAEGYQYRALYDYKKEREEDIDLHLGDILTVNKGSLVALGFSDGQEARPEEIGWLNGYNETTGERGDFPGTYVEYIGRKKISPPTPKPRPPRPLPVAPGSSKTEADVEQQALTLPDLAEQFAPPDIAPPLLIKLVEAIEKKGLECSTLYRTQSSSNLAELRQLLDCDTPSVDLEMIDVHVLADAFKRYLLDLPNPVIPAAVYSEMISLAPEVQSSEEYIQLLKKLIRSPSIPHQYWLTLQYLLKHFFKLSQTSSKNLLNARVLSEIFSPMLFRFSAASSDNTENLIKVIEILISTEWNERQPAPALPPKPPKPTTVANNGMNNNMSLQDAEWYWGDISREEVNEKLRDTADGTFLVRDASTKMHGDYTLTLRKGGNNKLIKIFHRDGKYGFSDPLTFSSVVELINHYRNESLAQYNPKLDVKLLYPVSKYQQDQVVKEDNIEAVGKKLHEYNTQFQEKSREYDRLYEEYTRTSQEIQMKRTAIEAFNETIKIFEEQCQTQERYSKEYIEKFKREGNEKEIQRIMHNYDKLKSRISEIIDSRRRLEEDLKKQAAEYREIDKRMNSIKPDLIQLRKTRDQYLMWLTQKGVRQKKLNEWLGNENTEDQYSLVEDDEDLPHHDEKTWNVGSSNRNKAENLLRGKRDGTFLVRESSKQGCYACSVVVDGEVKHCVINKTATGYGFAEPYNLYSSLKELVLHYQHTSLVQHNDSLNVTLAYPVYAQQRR
Description: as §1, §2, §3, §4, §5, §6, §7, §8

[3] = In vivo DMPK study in male CD-1 mice
Excerpt: Experimental purpose: Male CD-1 mice were used as test animals to determine plasma concentrations of compounds after a single administration and evaluate pharmacokinetic behavior.
Experimental operation: 8 healthy adult male CD-1 mice were selected, 4 for the intravenous injection group and 4 for the oral administration group. The compound to be tested was mixed with an appropriate amount of the solvent (DMSO/solvent/water (10:10:80 v/v/v)) for the intravenous injection group. The mixture solution was vortexed and sonicated to prepare a 1.0 mg/mL clear solution, which was filtered through a microporous membrane for further use. For the oral administration group, the solvent was DMSO/solvent/water (10:10:80 v/v/v). After the compound to be tested was mixed with the solvent, the mixture solution was vortexed and sonicated to prepare a 1.0 mg/mL homogeneous suspension for further use. After 1 mg/kg intravenous administration or 3 mg/kg oral administration in mice, whole blood was collected for a certain period of time to prepare plasma, and the drug concentration was analyzed by LC-MS/MS method, then the pharmacokinetic parameters were calculated using Phoenix WinNonlin software (Pharsight, USA).

[4] = In vivo plasma/brain tissue distribution study in male SD rats; settings: oral 10 mpk
Excerpt: Experimental purpose: Male SD rats were used as test animals to determine plasma concentrations of compounds and drug concentrations of brain tissue and cerebrospinal fluid after a single administration, and to evaluate the brain entry of the compound of the present disclosure.
Experimental operation: 12 healthy adult male SD rats were selected. The compound to be tested was mixed with an appropriate amount of solvent (DMSO/solvent/water (10:10:80 v/v/v)) for the oral administration group. The mixture was vortexed and sonicated to prepare a 1.0 mg/mL clear solution for further use. After oral administration of 10 mg/kg to rats, whole blood, brain tissue, and cerebrospinal fluid for a certain period of time were collected to prepare plasma, brain homogenate, and cerebrospinal fluid. The drug concentration was analyzed by LC-MS/MS method, and the pharmacokinetic parameters were calculated by Phoenix WinNonlin software (Pharsight, USA).

[5] = system: MDR1; assay: MDCK-MDR1 permeability test; format: in vitro ADME; settings: dog, pH 7.4, 2.5 hours
Description: Compounds in DMSO stock solution were diluted to 2 μM (DMSO<1%) with a transport buffer (HBSS with 10 mM Hepes, pH 7.4) and applied to the apical side or the basolateral side of the cell monolayer. Permeation of compounds from the A to B direction or from the B to A direction was determined in duplicate. The plate was incubated for 2.5 hours in a CO2 incubator at a temperature of 37+1° C. in a saturated humidity containing 5% CO2 without shaking. In addition, the efflux rate of each compound was also determined. Compounds were quantified by LC-MS/MS analysis based on the peak area ratio of analyte/IS.
After the transport assay, cell monolayer integrity was determined using the fluorescein exclusion test. The buffer was removed from the apical and basolateral chambers. Then 75 μL of 100 μM fluorescein transport buffer and 250 μL of transport buffer were added to the apical and basolateral chambers, respectively. The plate was incubated at 37° C., 5% CO2 and saturated humidity for 30 min without shaking. After 30 min of incubation, 20 μL of fluorescein sample was collected from the apical side, and 60 μL of transport buffer was added. An 80 μL of fluorescein sample was then collected from the basolateral side. Relative fluorescence units (RFU) of fluorescein were measured at 425/528 nm (excitation/emission) with an Envision microplate reader.

[6] = system: HCC1954 cells with PIK3CA mutation; assay: Cell activity test in vitro, anti-proliferation by CTG method, HCC1954; format: cell-based; settings: 72 hours
Description: By CTG method, the effect of the compound to be tested on the anti-proliferation activity of cells was determined in two cell lines, HCC1954 and HDQ-P1.
(1) HCC1954 and HDQ-P1 cells (ATCC® HTB-22™) were inoculated into 96-well plates, respectively, with 100 μL of cell complete medium per well (4000 cells/HDQ-P1 per well, 3500 cells/HCC1954 per well). Cells were cultured at 37° C., 5% CO2 for 24 hours.
(2) The cell complete medium was replaced by 100 μL of serum-free medium. The cells were starved overnight.
(3) Compounds were prepared (the starting concentration of the compound was 10 μM, and diluted 3-fold for 8 concentrations. Each concentration of the compound was then diluted 100-fold with serum-free medium), and 25 μL of the diluted compound was added to the plate containing the cells.
(4) The well plate was incubated at 37° C., 5% CO2 for 72 hours (HCC1954) or 120 hours (HDQ-P1).
(5) Subsequent operations were performed according to the instructions of the Promega CTG kit.

[7] = target: T3, PI3K α (Homo sapiens, UniProt P42336); assay: Enzyme activity test in vitro (ADP-Glo lipid kinase), PI3K α; format: biochemical; settings: ATP 40 μM, 120 min
T3 construct: purchased Millipore 14-602-K
T3 sequence (P42336 whole entry): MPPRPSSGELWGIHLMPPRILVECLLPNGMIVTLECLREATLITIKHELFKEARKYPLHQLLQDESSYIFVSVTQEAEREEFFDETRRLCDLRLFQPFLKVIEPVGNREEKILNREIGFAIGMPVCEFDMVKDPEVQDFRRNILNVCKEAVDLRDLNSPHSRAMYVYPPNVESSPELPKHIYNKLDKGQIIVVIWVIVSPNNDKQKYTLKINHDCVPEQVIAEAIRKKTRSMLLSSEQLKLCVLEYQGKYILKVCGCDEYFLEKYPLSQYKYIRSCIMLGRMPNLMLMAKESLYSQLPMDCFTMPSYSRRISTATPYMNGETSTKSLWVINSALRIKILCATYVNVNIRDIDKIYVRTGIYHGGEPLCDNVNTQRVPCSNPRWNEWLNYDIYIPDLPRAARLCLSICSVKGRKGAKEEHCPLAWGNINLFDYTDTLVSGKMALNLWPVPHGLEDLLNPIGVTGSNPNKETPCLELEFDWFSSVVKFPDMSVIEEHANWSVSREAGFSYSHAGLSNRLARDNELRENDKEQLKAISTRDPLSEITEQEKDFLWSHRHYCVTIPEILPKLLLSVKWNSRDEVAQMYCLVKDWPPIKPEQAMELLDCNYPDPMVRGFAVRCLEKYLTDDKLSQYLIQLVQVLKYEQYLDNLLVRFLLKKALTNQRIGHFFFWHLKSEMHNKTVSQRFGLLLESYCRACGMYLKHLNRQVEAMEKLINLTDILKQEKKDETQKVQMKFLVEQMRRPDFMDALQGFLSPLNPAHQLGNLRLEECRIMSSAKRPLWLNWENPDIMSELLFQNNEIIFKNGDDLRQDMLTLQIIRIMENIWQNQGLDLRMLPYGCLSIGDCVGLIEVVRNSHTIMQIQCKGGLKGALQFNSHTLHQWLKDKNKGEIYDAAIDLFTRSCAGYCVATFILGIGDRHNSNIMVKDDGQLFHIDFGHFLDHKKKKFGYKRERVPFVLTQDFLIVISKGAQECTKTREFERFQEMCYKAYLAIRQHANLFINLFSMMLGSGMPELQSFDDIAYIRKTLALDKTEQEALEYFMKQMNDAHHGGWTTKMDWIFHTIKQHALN
T3 sequence (P27986 whole entry partner): as the sequence (P27986 whole entry partner) above
Description: as §1, §2, §3, §4, §5
For PI3K α, the compounds were diluted three-fold from the highest concentration of 0.111 mM for a total of 10 concentrations.
as §7, §8

[8] = Rat plasma-protein binding; format: in vitro ADME
[9] = target: T4, PI3K β (Homo sapiens, UniProt P42338); assay: Enzyme activity test in vitro (ADP-Glo lipid kinase), PI3K β; format: biochemical; settings: ATP 40 μM, 120 min
T4 construct: purchased Promega V1751
T4 sequence (P42338 whole entry): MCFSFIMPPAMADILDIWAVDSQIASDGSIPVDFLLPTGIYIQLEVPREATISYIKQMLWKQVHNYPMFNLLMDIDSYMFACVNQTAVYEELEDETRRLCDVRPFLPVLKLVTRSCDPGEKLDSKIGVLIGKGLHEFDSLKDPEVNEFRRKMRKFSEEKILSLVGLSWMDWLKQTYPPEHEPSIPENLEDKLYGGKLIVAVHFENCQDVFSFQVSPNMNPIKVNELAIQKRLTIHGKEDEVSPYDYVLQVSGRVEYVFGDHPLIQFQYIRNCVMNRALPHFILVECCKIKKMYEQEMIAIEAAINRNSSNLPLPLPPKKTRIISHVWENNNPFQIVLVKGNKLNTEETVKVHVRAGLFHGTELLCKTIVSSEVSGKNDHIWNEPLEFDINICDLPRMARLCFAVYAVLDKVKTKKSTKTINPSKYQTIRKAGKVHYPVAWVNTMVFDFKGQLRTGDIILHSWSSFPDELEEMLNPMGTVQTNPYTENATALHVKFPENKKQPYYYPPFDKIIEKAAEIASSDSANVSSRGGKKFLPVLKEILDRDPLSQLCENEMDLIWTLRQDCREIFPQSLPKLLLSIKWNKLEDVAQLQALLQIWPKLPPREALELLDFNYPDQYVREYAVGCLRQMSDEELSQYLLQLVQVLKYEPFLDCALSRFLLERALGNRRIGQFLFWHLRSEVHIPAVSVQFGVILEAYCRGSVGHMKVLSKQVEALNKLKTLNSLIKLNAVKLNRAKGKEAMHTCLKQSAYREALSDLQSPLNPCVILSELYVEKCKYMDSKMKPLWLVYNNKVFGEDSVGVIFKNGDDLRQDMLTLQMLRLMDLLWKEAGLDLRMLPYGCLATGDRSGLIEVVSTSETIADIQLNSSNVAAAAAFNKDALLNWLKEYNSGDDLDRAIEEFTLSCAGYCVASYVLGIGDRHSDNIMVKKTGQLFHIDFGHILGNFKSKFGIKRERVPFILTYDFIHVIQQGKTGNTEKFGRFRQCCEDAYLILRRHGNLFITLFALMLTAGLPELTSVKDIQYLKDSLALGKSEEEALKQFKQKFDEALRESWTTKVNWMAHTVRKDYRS
T4 sequence (P27986 whole entry partner): as the sequence (P27986 whole entry partner) above
Description: as §1, §2, §3, §4, §5, §6, §7, §8

- pIC50 [1]: 7.14
- pIC50 [2]: 6.88
- Oral DNAUC ([3]; 3 mg/kg oral administration): 778 nM · h/mpk
- clearance ([3]; male, CD-1, mouse, plasma, 1 mg/kg intravenous, read-out: Intravenous injection Cl): 26.1 mL/min/kg
- half-life ([3]; male, CD-1, mouse, plasma, 1 mg/kg intravenous, read-out: Intravenous injection T1/2 (converted)): 1.2 h
- Vd ([3]; male, CD-1, mouse, plasma, 1 mg/kg intravenous, read-out: Intravenous injection Vd): 1.09 L/kg
- Cmax ([3]; male, CD-1, mouse, plasma, 3 mg/kg oral administration): 1760 nM
- bioavailability ([3]; male, CD-1, mouse, plasma, 3 mg/kg oral vs 1 mg/kg intravenous, read-out: Oral F %): 50%
- Tmax ([4]; male, SD, rat, 10 mg/kg, brain tissue, read-out: Tmax, Brain tissue): 1 h
- AUC ([4]; male, SD, rat, 10 mg/kg, cerebrospinal fluid, read-out: AUC, Cerebrospinal fluid): 0.128 µM·h
- Cmax ([4]; male, SD, rat, 10 mg/kg, cerebrospinal fluid, read-out: Cmax, Cerebrospinal fluid): 60.4 nM
- Tmax ([4]; male, SD, rat, 10 mg/kg, cerebrospinal fluid, read-out: Tmax, Cerebrospinal fluid): 1 h
- AUC ([4]; male, SD, rat, 10 mg/kg, plasma, read-out: AUC, Plasma): 3.12 µM·h
- Cmax ([4]; male, SD, rat, 10 mg/kg, plasma, read-out: Cmax, Plasma): 1520 nM
- half-life ([4]; male, SD, rat, 10 mg/kg, plasma, read-out: T1/2, Plasma (converted)): 1.32 h
- Tmax ([4]; male, SD, rat, 10 mg/kg, plasma, read-out: Tmax, Plasma): 0.25 h
- AUC, Brain tissue ([4]; brain tissue): ND, 342 nM * h
- Cmax, Brain tissue ([4]; brain tissue): 147 nM
- Papp A→B at 2.5 h, 2 μM [5]: 1.99 ×10⁻⁶ cm/s
- Papp B→A at 2.5 h, 2 μM [5]: 16 ×10⁻⁶ cm/s
- pIC50 [6]: 7.00
- pIC50 [7]: 9.12
- fraction unbound [8]: 0.515
- pIC50 [9]: 6.07
SMILES: C[C@H](Nc1ccc2c(c1)OCCn1cc(N3C(=O)OC[C@H]3C(F)F)nc1-2)C(N)=O [GDC-0077]
